Data from ChEMBL document CHEMBL1909046, “DrugMatrix in vitro pharmacology data”.

Key:
Estrogen receptor = molecular target: T1, Estrogen receptor (Homo sapiens, UniProt P03372); conditions: sf9; also: in other assays of this panel Not Active means under 50% inhibition at 10 µM
T1 sequence (P03372 whole entry): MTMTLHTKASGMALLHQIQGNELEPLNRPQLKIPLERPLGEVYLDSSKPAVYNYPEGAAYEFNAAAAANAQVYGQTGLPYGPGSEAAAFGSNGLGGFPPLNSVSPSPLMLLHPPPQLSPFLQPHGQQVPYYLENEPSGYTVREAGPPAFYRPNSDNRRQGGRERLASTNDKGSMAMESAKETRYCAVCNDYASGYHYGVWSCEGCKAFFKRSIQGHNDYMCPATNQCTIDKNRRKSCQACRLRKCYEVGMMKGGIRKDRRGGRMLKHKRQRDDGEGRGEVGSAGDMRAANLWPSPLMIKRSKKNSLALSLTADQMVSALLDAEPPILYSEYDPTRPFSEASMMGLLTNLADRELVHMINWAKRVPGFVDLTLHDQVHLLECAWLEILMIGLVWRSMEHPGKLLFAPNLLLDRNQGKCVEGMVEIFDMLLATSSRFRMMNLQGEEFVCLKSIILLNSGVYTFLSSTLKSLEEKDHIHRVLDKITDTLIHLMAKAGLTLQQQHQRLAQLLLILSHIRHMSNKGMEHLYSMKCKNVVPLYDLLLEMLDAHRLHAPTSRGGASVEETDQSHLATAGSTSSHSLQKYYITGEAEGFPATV

Cytochrome P450 3A4 = Cytochrome P450 3A4 (Homo sapiens, UniProt P08684); conditions: bti-tn-5b1-4; also: in other assays of this panel Not Active means under 50% inhibition at 10 µM
D(4) dopamine receptor = molecular target: T2, D(4) dopamine receptor (Homo sapiens, UniProt P21917); assay: DRUGMATRIX: Dopamine D4.2 radioligand binding (ligand: [3H] Spiperone); format: cell membranes, CHO-K1, Membrane; conditions: cho-k1; Not Active = under 50% inhibition at 10 µM
T2 sequence (P21917 whole entry): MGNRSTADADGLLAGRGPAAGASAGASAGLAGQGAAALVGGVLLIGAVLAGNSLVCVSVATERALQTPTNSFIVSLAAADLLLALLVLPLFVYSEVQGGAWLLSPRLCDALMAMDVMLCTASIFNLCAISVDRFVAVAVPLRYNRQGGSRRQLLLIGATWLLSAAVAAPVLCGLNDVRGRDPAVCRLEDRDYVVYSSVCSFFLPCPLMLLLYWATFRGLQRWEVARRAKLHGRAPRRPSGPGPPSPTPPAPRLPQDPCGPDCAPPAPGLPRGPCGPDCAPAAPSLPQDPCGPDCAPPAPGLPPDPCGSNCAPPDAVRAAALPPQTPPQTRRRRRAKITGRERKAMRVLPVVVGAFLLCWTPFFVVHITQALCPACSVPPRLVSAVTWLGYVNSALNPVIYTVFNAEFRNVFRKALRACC

[1] = molecular target: T3, C-X-C chemokine receptor type 2 (Homo sapiens, UniProt P25025); format: cell membranes, Membrane; conditions: cho-k1; also: in other assays of this panel Not Active means under 50% inhibition at 10 µM
T3 sequence (P25025 whole entry): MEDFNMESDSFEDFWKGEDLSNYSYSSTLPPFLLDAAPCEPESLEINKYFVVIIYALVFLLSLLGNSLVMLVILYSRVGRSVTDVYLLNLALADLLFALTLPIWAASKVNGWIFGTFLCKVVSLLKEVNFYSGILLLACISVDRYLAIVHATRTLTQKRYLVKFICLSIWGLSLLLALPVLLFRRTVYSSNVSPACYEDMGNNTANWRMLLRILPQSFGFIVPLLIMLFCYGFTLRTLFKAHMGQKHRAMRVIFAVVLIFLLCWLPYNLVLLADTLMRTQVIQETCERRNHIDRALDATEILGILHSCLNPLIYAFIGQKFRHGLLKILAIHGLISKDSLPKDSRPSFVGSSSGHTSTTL

[2] = DRUGMATRIX: Glutamate, Kainate radioligand binding (ligand: [3H] Kainic acid); format: cell membranes, Rattus norvegicus, Wistar, Brain, Membrane; conditions: Not Active = under 50% inhibition at 10 µM
[3] = DRUGMATRIX: Glutamate, NMDA, Phencyclidine radioligand binding (ligand: [3H] TCP); format: cell membranes, Rattus norvegicus, Wistar, Cerebral cortex, Membrane; conditions: Not Active = under 50% inhibition at 10 µM
Androgen receptor = molecular target: T4, Androgen receptor (Rattus norvegicus, UniProt P15207); also: in other assays of this panel Not Active means under 50% inhibition at 10 µM
T4 sequence (P15207 whole entry): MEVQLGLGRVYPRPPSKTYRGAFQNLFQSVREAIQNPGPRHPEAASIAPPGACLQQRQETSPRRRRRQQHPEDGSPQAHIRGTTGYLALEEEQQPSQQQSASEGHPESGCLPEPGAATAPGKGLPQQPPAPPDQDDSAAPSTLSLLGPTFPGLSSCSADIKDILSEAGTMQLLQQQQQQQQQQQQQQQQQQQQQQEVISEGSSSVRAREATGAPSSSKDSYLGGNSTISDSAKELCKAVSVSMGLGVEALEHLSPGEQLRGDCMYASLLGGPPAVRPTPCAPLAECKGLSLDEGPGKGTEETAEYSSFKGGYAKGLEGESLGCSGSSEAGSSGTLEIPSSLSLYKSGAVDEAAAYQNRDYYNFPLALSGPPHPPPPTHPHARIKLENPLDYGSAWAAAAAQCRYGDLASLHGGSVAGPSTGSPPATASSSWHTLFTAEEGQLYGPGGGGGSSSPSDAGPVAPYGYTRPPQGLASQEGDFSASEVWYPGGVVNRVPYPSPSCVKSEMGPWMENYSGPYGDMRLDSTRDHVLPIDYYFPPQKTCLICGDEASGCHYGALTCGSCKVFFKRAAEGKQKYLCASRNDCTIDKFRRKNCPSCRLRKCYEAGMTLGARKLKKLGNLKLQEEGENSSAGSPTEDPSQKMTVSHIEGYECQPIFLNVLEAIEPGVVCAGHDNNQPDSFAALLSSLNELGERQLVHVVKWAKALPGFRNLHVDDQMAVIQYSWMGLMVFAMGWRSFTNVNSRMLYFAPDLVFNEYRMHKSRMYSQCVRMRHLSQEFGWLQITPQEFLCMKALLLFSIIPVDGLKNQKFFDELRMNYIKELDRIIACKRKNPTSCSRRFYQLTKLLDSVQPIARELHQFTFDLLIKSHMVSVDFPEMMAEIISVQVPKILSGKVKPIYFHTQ

Cytochrome P450 3A4, sequence (P08684 whole entry): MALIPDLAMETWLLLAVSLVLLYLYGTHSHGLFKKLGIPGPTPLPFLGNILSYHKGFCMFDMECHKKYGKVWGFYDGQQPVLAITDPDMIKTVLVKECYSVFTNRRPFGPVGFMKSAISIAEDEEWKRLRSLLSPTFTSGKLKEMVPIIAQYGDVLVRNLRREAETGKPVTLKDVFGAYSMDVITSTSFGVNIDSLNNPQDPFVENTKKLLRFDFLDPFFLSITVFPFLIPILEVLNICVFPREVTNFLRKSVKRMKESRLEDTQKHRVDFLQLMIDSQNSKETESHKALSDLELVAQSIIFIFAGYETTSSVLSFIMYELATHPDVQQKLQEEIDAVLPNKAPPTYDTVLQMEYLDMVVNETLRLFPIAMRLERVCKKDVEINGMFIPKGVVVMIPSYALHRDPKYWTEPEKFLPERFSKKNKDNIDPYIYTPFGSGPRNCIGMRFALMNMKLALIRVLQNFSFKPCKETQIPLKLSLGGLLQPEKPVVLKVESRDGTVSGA

CC(C)(C)NC(=O)[C@@H]1C[C@@H]2CCCC[C@@H]2CN1C[C@@H](O)[C@H](Cc1ccccc1)NC(=O)[C@H](CC(N)=O)NC(=O)c1ccc2ccccc2n1
Not Active: IC50 (Estrogen receptor) | IC50 (Cytochrome P450 3A4) | Ki (Cytochrome P450 3A4) | IC50 (D(4) dopamine receptor) | IC50 [1] | IC50 [2] | Ki [2] | IC50 [3] | Ki [3]

OCCN(CCO)c1nc(N2CCCCC2)c2nc(N(CCO)CCO)nc(N3CCCCC3)c2n1 [DIPYRIDAMOLE]
Not Active: IC50 (Estrogen receptor) | IC50 (D(4) dopamine receptor) | IC50 [1] | IC50 [2] | Ki [2] | IC50 (Androgen receptor) | IC50 [3] | Ki [3]

Cc1oncc1C(=O)Nc1ccc(C(F)(F)F)cc1 [LEFLUNOMIDE]
Not Active: IC50 (Estrogen receptor) | IC50 (Cytochrome P450 3A4) | Ki (Cytochrome P450 3A4) | IC50 (D(4) dopamine receptor) | IC50 [1] | IC50 [2] | Ki [2] | IC50 [3] | Ki [3]

c1ccc([C@H]2CN3CCSC3=N2)cc1 [LEVAMISOLE]
Not Active: IC50 (Estrogen receptor) | IC50 (Cytochrome P450 3A4) | Ki (Cytochrome P450 3A4) | IC50 (D(4) dopamine receptor) | IC50 [1] | IC50 [2] | Ki [2] | IC50 [3] | Ki [3]

CC[C@@H](CO)NC(=O)[C@@H]1C=C2c3cccc4[nH]cc(c34)C[C@H]2N(C)C1 [METHYLERGONOVINE]
Not Active: IC50 (Estrogen receptor) | IC50 (Cytochrome P450 3A4) | Ki (Cytochrome P450 3A4) | IC50 (D(4) dopamine receptor) | IC50 [1] | IC50 [2] | Ki [2] | IC50 (Androgen receptor) | IC50 [3] | Ki [3]

COc1nc(C)nc(Cl)c1NC1=NCCN1 [MOXONIDINE]
Not Active: IC50 (Estrogen receptor) | IC50 (Cytochrome P450 3A4) | Ki (Cytochrome P450 3A4) | IC50 (D(4) dopamine receptor) | IC50 [1] | IC50 [2] | Ki [2] | IC50 [3] | Ki [3]

COc1c(C)c2c(c(O)c1C/C=C(\C)CCC(=O)O)C(=O)OC2 [MYCOPHENOLIC ACID]
Not Active: IC50 (Estrogen receptor) | IC50 (Cytochrome P450 3A4) | Ki (Cytochrome P450 3A4) | IC50 (D(4) dopamine receptor) | IC50 [1] | IC50 [2] | Ki [2] | IC50 [3] | Ki [3]

O=c1ncn2nc(Sc3ccc(F)cc3F)ccc2c1-c1c(Cl)cccc1Cl [NEFLAMAPIMOD]
Not Active: IC50 (Estrogen receptor) | IC50 (Cytochrome P450 3A4) | Ki (Cytochrome P450 3A4) | IC50 (D(4) dopamine receptor) | IC50 [1] | IC50 [2] | Ki [2] | IC50 (Androgen receptor) | IC50 [3] | Ki [3]

C=CCC1(C(C)CCC)C(=O)NC(=O)NC1=O (stereo not given) [SECOBARBITAL]
Not Active: IC50 (Estrogen receptor) | IC50 (Cytochrome P450 3A4) | Ki (Cytochrome P450 3A4) | IC50 (D(4) dopamine receptor) | IC50 [1] | IC50 [2] | Ki [2] | IC50 [3] | Ki [3]

C[C@@H]1CN(c2c(F)c(N)c3c(=O)c(C(=O)O)cn(C4CC4)c3c2F)C[C@H](C)N1 [SPARFLOXACIN]
Not Active: IC50 (Estrogen receptor) | IC50 (Cytochrome P450 3A4) | Ki (Cytochrome P450 3A4) | IC50 (D(4) dopamine receptor) | IC50 [1] | IC50 [2] | Ki [2] | IC50 [3] | Ki [3]

Cc1noc(NS(=O)(=O)c2ccc(N)cc2)c1C [SULFISOXAZOLE]
Not Active: IC50 (Estrogen receptor) | IC50 (Cytochrome P450 3A4) | Ki (Cytochrome P450 3A4) | IC50 (D(4) dopamine receptor) | IC50 [1] | IC50 [2] | Ki [2] | IC50 [3] | Ki [3]

CSc1ccc(/C=C2/C(C)=C(CC(=O)O)c3cc(F)ccc32)cc1 [SULINDAC SULFIDE]
Not Active: IC50 (Estrogen receptor) | IC50 (Cytochrome P450 3A4) | Ki (Cytochrome P450 3A4) | IC50 (D(4) dopamine receptor) | IC50 [1] | IC50 [2] | Ki [2] | IC50 (Androgen receptor) | IC50 [3] | Ki [3]

Nc1c2c(nc3ccccc13)CCCC2 [TACRINE]
Not Active: IC50 (Estrogen receptor) | IC50 (Cytochrome P450 3A4) | Ki (Cytochrome P450 3A4) | IC50 (D(4) dopamine receptor) | IC50 [1] | IC50 [2] | Ki [2] | IC50 [3] | Ki [3]

CC(C)N1CCN(c2ccc(OCC3COC(Cn4cncn4)(c4ccc(Cl)cc4Cl)O3)cc2)CC1 (stereo not given) [TERCONAZOLE]
Not Active: IC50 (Estrogen receptor) | IC50 (Cytochrome P450 3A4) | Ki (Cytochrome P450 3A4) | IC50 (D(4) dopamine receptor) | IC50 [1] | IC50 [2] | Ki [2] | IC50 [3] | Ki [3]

Nc1nc2nc[nH]c2c(=S)[nH]1 [THIOGUANINE]
Not Active: IC50 (Estrogen receptor) | IC50 (Cytochrome P450 3A4) | Ki (Cytochrome P450 3A4) | IC50 (D(4) dopamine receptor) | IC50 [1] | IC50 [2] | Ki [2] | IC50 (Androgen receptor) | IC50 [3] | Ki [3]

Cc1cccc(N(C)C(=S)Oc2ccc3ccccc3c2)c1 [TOLNAFTATE]
Not Active: IC50 (Estrogen receptor) | IC50 (Cytochrome P450 3A4) | Ki (Cytochrome P450 3A4) | IC50 (D(4) dopamine receptor) | IC50 [1] | IC50 [2] | Ki [2] | IC50 [3] | Ki [3]

NC[C@H]1CC[C@H](C(=O)O)CC1 [TRANEXAMIC ACID]
Not Active: IC50 (Estrogen receptor) | IC50 (Cytochrome P450 3A4) | Ki (Cytochrome P450 3A4) | IC50 (D(4) dopamine receptor) | IC50 [1] | IC50 [2] | Ki [2] | IC50 [3] | Ki [3]

Cc1c(C)c2c(c(C)c1O)CCC(C)(COc1ccc(CC3SC(=O)NC3=O)cc1)O2 (stereo not given) [TROGLITAZONE]
Not Active: IC50 (Estrogen receptor) | IC50 (Cytochrome P450 3A4) | Ki (Cytochrome P450 3A4) | IC50 (D(4) dopamine receptor) | IC50 [1] | IC50 [2] | Ki [2] | IC50 (Androgen receptor) | IC50 [3] | Ki [3]

N[C@@H]1[C@H]2CN(c3nc4c(cc3F)c(=O)c(C(=O)O)cn4-c3ccc(F)cc3F)C[C@@H]12 [TROVAFLOXACIN]
Not Active: IC50 (Estrogen receptor) | IC50 (Cytochrome P450 3A4) | Ki (Cytochrome P450 3A4) | IC50 (D(4) dopamine receptor) | IC50 [1] | IC50 [2] | Ki [2] | IC50 (Androgen receptor) | IC50 [3] | Ki [3]

CCCOc1ccccc1-c1nc2nn[nH]c2c(=O)[nH]1 [ZAPRINAST]
Not Active: IC50 (Estrogen receptor) | IC50 (Cytochrome P450 3A4) | Ki (Cytochrome P450 3A4) | IC50 (D(4) dopamine receptor) | IC50 [1] | IC50 [2] | Ki [2] | IC50 [3] | Ki [3]
